Results on two compounds are retold here after patent publication US20250282798A1, “HETEROARYL-SUBSTITUTED BICYCLIC COMPOUND AND USE THEREOF” (Medshine Discovery Inc., priority 2022, published 2025).

Usually IC50 stands for the concentration at which inhibition is half-maximal. A lower IC50 goes with inhibition by little substance. As a reminder, the CLint scaled is the rate of metabolic loss divided by the concentration. A word on the half-life: it is the time needed for the level to fall by half in the phase considered.

Molecules are shown by their SMILES.

The target of one data set is human GLK (Homo sapiens (Human), UniProt Q8IVH8). Kind of data set: Kinase activity assay using ADP-Glo method, GLK. Format: biochemical. The conditions noted are these: GLK enzyme concentration 8 nM; ATP 20 μM. The protocol: The IC50 value was assayed by the kinase activity assay using ADP-Glo method to evaluate the inhibitory ability of a test compound on human GLK.
Enzyme buffer conditions: 50 mM Hepes (pH 7.5), 10 mM MgCl2, 1 mM EGTA, 0.01% Brij35, 2 mM DTT.
Preparation of the mixture of kinase and substrate: the concentration of GLK in the reaction solution was 8 nM, the concentration of ATP was […], and the concentration of MBP was 0.05 mg/mL.
(§1) Assay steps: A compound was diluted 4-fold with DMSO in a dilution plate, with a final initial concentration of […] and 10 concentration gradient points. The compound was diluted 50-fold into the kinase reaction buffer, and the mixture was shaken on a shaker for 20 minutes. The kinase was prepared with the enzyme reaction buffer. 2 μL of kinase was added to each well of a reaction plate. 1 μL of the diluted compound in the buffer was added to each well. The plate was sealed with a sealing film, centrifuged at 1000 g for 30 seconds, and placed at room temperature for 10 minutes. The mixed solution of ATP/MBP was prepared with the enzyme reaction buffer. 2 μL of the mixed solution of ATP/MBP was added to the reaction plate. The plate was sealed with a sealing film, and centrifuged at 1000 g for 30 seconds. The mixture in the plate was reacted at room temperature for 60 minutes. 4 μL of ADP-Glo was transferred to the 384 reaction plate, and centrifuged at 1000 rpm/min for 1 min. The plate was incubated at 25° C. for 40 min. 8 μL of detection solution was transferred to the 384 reaction plate, and centrifuged at 1000 rpm/min for 1 min. The plate was incubated at 25° C. for 40 min. The RLU (relative luminescence unit) signal was read with a BMG microplate reader, and the signal intensity was used to characterize the activity of the kinase.
(§2) The kinase activity data were expressed as the comparison of the kinase activity of a group with a test compound and the kinase activity of the blank group (containing only DMSO). The IC50 value was obtained by curve fitting using Prism software (GraphPad7.0).

The target in the next data set is human HPK1 (Homo sapiens (Human), UniProt Q92918). Kind of data set: Kinase activity assay using ADP-Glo method (Method 2). Format: biochemical. Conditions: HPK1 enzyme concentration 0.1 nM; ATP concentration 10 μM. The protocol: Method 2: The IC50 value was assayed by the kinase activity assay using ADP-Glo method to evaluate the inhibitory ability of a test compound on human HPK1.
Enzyme buffer conditions: 50 mM Hepes (pH 7.5), 10 mM MgCl2, 1 mM EGTA, 0.01% Brij35, 2 mM DTT. […]
as §1, with “4 μL of ADP-Glo was transferred to the 384 reaction plate, and centrifuged at 1000 rpm/min for 1 min.” left out, “8 μL of detection solution was transferred to the 384 reaction plate, and centrifuged at 1000 rpm/min for 1 min.” left out
as §2

The nature of data set [1]: In vitro metabolic stability in human liver microsomes. Conditions: 1 μM compound, 0.5 mg/mL protein. Format: in vitro ADME. The protocol: The in vitro metabolic stability of the compounds of the present disclosure in human was investigated by the metabolic stability in human liver microsomes.
Assay conditions: 1 μM of a compound was incubated with human liver microsomes supplemented with NADPH regeneration system at 37° C. for a certain period of time up to 60 minutes. The concentration of the compound in the resulting sample was assayed by LC-MS/MS method.
Assay procedure: 96-well incubation plates were named T0, T5, T15, T30, T45, T60, Blank60 and NCF60, respectively. The reaction time corresponding to the incubation plates were 0, 5, 15, 30, 45 and 60 minutes, respectively. No test sample or control compound was added to the Blank60 plate, and samples were taken after 60 minutes of incubation. Potassium phosphate buffer was used instead of NADPH regeneration system solution in the NCF60 plate, and the plate was incubated for 60 minutes. All the samples of the time points were from a single well.
5 μL of a test sample or control sample working solution and 100 μL of microsome working solution (the concentration of liver microsome protein was 0.5 mg/mL) were added to the T0, T5, T15, T30, T45, T60 and NCF60 plates, respectively. Only microsome working solution was added to the Blank60 plate. Then, the Blank60, T5, T15, T30, T45 and T60 plates, except TO and NCF60 plates, were placed in a 37° C. water bath, and preincubated for about 10 minutes.
180 μL of stop solution (the stop solution was a solution of tolbutamide (100 ng/mL) in acetonitrile and methanol (95:5, V/V)) was firstly added to the sample of TO plate, and then the NADPH regeneration system working solution was added.
50 μL of potassium phosphate buffer was added to each well of the NCF60 plate, and the plate was incubated for 60 minutes.
After the pre-incubation of Blank60, T5, T15, T30, T45 and T60 plates, 44 μL of NADPH regeneration system working solution was added to each sample well to initiate the reaction. Therefore, for the sample wells containing a test sample or control sample working solution, the final concentration of the reaction was […], the concentration of liver microsomes was 0.5 mg/mL, and the final concentrations of DMSO and acetonitrile in the reaction system were 0.01% (v/v) and 0.99% (v/v), respectively.
After being incubated for an appropriate time (e.g., 5, 15, 30, 45, and 60 min), 180 μL of stop solution was added to each well of the test sample and control sample of Blank60, T5, T15, T30, T45, T60, and NCF60 plates, respectively, to terminate the reaction.
All sample plates were shaken and centrifuged for 10 min. 80 μL of the supernatant of a test sample was taken and diluted into 240 μL of a mixture of acetonitrile and water (1:9, V/V) containing 0.1% formic acid for LC-MS/MS analysis.
By calculating the corresponding time point and the remaining percentage of a compound, the half-life T1/2 and clearance rate CLint(liver) of the compound in human liver microsome metabolism were obtained.
On the technique in general: Liver microsomes are vesicles of endoplasmic reticulum, rich in cytochrome P450 enzymes.

Chain of human HPK1 (Q92918 whole entry): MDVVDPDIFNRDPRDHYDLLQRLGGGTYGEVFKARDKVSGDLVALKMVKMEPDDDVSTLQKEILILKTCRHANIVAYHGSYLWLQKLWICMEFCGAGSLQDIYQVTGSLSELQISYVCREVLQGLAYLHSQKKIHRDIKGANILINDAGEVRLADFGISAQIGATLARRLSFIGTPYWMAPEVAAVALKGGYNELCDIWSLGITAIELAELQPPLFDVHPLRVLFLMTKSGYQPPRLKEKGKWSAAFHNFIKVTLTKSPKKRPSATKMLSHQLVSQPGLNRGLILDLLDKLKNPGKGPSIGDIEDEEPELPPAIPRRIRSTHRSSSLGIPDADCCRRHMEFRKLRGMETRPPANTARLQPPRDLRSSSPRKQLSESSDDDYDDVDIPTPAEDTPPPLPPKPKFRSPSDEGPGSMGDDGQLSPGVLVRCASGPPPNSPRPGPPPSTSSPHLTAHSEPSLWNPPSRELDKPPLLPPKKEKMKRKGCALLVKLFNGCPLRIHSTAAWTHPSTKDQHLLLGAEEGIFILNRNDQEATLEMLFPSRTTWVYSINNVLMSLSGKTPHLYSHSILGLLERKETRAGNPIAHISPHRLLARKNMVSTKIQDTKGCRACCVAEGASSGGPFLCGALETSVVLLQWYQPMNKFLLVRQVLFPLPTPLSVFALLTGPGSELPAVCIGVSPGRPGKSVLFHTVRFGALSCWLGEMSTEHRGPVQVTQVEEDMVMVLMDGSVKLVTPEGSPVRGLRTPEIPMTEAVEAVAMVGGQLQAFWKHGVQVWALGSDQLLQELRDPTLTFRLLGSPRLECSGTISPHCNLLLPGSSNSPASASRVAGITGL
Chain of human GLK (Q8IVH8 whole entry): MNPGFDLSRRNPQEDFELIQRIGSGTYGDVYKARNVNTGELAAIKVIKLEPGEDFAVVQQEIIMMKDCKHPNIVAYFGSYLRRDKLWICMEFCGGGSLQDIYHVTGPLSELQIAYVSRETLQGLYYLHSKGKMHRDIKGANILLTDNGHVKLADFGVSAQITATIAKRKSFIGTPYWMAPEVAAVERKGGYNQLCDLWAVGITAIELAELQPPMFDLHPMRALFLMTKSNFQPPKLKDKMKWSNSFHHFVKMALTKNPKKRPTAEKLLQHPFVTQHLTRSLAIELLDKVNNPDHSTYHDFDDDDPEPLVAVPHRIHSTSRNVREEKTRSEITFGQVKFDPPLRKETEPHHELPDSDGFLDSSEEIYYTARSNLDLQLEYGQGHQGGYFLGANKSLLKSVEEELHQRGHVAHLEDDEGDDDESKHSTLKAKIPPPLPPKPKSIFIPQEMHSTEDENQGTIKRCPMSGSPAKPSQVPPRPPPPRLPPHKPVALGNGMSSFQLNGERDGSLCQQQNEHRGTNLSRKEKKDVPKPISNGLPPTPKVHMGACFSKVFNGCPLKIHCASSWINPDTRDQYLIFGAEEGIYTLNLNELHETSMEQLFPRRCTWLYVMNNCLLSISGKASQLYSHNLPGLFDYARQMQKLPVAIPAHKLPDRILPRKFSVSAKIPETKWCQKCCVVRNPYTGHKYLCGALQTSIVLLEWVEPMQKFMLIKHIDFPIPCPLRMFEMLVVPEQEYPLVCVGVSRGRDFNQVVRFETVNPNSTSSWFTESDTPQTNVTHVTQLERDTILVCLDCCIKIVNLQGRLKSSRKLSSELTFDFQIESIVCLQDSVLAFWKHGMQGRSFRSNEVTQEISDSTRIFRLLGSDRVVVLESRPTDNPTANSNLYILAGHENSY

The compound `Cn1ccc2c(-c3ncc(Nc4ccc5c(n4)OC[C@@H]4COCCN54)c4c3CNC4=O)ccnc21` [Compound 4] displayed an IC50 against human GLK of 594 nM. The IC50 at human HPK1 was 0.62 nM. In addition, in data set [1], the “CLint(liver)” value was 35 mL/min/kg and the T1/2 is 36 min.
On human GLK, `O=C1NCc2c(-c3cnc4cc(F)ccn34)ccc(Nc3ccc4c(n3)OC[C@@H]3COCCN43)c21` [Compound 8] had an IC50 of 154 nM. At human HPK1, this compound registered an IC50 of 2 nM. In data set [1], the CLint scaled at 1 μM was determined as 37 mL/min/kg and the half-life at 1 μM is 34 min.
